A word on the IC50: it is the midpoint of a concentration-inhibition curve. A high value points to lower potency.

In this assay the target is T1, Fatty-acid amide hydrolase 1 (Homo sapiens, UniProt O00519).
T1 sequence (O00519 whole entry): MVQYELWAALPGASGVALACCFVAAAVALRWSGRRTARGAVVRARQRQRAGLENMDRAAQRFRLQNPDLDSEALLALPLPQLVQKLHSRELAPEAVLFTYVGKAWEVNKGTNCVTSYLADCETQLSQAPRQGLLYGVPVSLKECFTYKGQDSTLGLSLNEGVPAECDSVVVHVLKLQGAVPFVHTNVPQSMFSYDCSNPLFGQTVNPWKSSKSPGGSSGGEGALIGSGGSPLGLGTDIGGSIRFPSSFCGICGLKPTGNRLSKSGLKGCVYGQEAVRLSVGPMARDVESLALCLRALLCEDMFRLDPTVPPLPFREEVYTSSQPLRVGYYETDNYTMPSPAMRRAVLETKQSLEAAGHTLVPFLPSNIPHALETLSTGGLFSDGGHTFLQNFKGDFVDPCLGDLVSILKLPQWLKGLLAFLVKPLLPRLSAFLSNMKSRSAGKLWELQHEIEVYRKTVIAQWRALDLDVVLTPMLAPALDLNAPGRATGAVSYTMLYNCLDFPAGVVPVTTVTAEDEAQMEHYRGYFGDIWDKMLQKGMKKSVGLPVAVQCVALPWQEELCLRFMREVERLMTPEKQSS
Nature of the assay: FAAH Inhibition Assay. The conditions noted are these: pH 9; 22 °C. The procedure: FAAH Inhibition Assay [3H]Ethanolamine produced from [3H]AEA hydrolysis was used to calculate FAAH activity and was measured by scintillation counting of the aqueous phase after extraction of the incubation mixture. Data were expressed as the percentage of [3H]-ethanolamine formed versus vehicle, after subtraction of the background radioactivity determined in the presence of arachidonyl trifluoromethyl ketone (ATFMK), an inhibitor of FAAH. IC50 values were determined using a four-parameter logistic equation for dose-response curves.
The compound `CCOC(=O)C(C)CCCCCn1c(C)nc(-c2ccccc2)c1-c1ccccc1` (racemic) [D, L mixtures] gave an IC50 of 130 nM.

Turning to `CCOC(=O)C(CCCCCn1c(C)nc(-c2ccccc2)c1-c1ccccc1)C(C)C` (racemic) [D, L mixtures], the IC50 is over 100000 nM.

The compound `CCOC(=O)C(CC)CCCCCn1c(C)nc(-c2ccccc2)c1-c1ccccc1` (centres undefined) [D, L mixtures] showed an IC50 of 9900 nM.

`CCOC(=O)CCCCCCCn1c(CC)nc(-c2ccccc2)c1-c1ccccc1` [ethyl 8-(2-ethyl-4,5-diphenyl-1H-imidazol-1-yl)octanoate] gave an IC50 of 31 nM.

The record behind these values is BindingDB's records for doi:10.1016/j.bmcl.2007.04.009 (Bristol-Myers Squibb, 2007).
